Laboratory results published in patent publication US6743598B2, “Methods for the identification of fungal glucose utilization inhibitors and antifungal agents” (priority 2001, dated 2004).
Entries after “also recorded” stand apart in the source; their conditions may differ.

Legend:
[1] = system: A. fumigatus phosphoglucose isomerase, ketol-isomerase, and N-acetyltransferase; assay: Colorimetric CoA(GlcNAc-6-P) formation assay in crude A. fumigatus lysates; type: biochemical, Aspergillus fumigatus; details: added to crude A. fumigatus lysates, FIG. 5
Experimental: A. fumigatus ATCC16424 (a human clinical isolate) was inoculated into liquid YG medium [1% (w/v) yeast extract and 1% (w/v) glucose] with 1×10^7 conidia per/mL (final concentration), and incubated for 18 hours at 37° C. with shaking (250 rpm). Hyphae were harvested by vacuum filtration over Whatman No. 2 filter paper, washed twice with ice-cold water, quick-frozen in dry ice, and stored at −80° C.
Frozen A. fumigatus hyphae were thawed and disrupted by bead-beating (6×30 seconds pulses with 2 minutes cooling between each pulse) using 0.5 mm zirconium beads in KI buffer (600 mM sucrose, 1 mM KCl, 1 mM EDTA, 50 mM PIPES, pH 6.8). The lysates were centrifuged at 1,000×g for 10 minutes at 4° C. The supernatants were stored at −80° C. and used as enzyme sources. The protein concentration of the supernatants was determined using the BioRad protein assay kit.
Reactions were performed in 96-well flat bottom microtiter plates containing 10 mM Glc-6-P, 10 mM glutamine, 200 μM AcCoA, and 0.25 mg/mL cell lysate of A. fumigatus at pH 6.8 in a final volume of 50 μL. […] After incubation for 10 minutes at room temperature, the OD412 was measured using a microtiter plate reader. […] The amount of CoA formed by reaction mixtures was calculated from the standard curve. […]

[2] = biological target: yeast phosphoglucose isomerase (Saccharomyces cerevisiae, UniProt P12709); details: cited from earlier work
Sequence of yeast phosphoglucose isomerase (P12709 2-554): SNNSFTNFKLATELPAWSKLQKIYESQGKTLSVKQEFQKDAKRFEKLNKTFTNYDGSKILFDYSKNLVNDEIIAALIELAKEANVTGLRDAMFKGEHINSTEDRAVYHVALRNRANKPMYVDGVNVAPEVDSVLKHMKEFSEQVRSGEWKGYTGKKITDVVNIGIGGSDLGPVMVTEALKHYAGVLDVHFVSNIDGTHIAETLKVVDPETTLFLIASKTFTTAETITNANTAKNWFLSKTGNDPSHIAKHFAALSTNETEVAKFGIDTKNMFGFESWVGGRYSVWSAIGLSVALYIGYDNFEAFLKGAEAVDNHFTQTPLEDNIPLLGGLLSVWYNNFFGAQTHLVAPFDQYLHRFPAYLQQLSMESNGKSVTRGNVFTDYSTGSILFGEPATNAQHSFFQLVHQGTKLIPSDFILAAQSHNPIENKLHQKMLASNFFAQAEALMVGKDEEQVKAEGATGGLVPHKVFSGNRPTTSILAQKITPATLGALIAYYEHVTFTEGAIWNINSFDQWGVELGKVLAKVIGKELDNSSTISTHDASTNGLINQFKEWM

[3] = biological target: T. brucei phosphoglucose isomerase (Trypanosoma brucei brucei, UniProt P13377); details: cited from earlier work
Sequence of T. brucei phosphoglucose isomerase (P13377 whole entry): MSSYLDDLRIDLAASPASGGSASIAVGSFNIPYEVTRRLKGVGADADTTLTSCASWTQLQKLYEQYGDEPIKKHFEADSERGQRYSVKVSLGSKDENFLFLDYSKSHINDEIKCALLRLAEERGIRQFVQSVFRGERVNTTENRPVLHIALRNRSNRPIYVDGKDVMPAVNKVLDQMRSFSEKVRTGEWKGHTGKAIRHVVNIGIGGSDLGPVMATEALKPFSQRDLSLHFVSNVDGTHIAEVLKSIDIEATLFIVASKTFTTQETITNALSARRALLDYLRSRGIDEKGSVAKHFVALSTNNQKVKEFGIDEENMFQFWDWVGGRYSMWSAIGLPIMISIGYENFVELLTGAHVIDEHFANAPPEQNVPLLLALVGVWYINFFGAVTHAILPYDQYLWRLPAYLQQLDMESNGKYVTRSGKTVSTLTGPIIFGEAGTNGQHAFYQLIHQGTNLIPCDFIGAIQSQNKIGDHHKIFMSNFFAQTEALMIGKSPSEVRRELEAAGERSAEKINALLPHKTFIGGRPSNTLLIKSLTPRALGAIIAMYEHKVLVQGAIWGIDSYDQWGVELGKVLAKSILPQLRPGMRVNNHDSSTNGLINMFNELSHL

[4] = biological target: Rabbit phosphoglucose isomerase (Oryctolagus cuniculus, UniProt Q9N1E2); details: low ionic strength, cited from earlier work
Yeast PGI = Yeast PGI (Saccharomyces cerevisiae, UniProt P12709); details: cited from earlier work
Sequence of Yeast PGI (P12709 2-554): as the sequence (P12709 2-554) above

T. brucei PGI = T. brucei PGI (Trypanosoma brucei brucei, UniProt P13377); details: cited from earlier work
Sequence of T. brucei PGI (P13377 whole entry): as the sequence (P13377 whole entry) above

Chitin synthase = details: competitive substrate inhibitors of chitin synthase; cited from earlier work
[5] = competitive inhibitor, low ionic strength, read-out: Gluconate-6-P Ki
[6] = read-out: Fru-6-P Km, low ionic strength

For “uridine diphosphate-N-acetyl glucosamine [UDP-GlcNAc]”, the “inhibition of CoA (GlcNAc-6-P) formation” value [1] was “inhibited the formation of CoA (GlcNAc-6-P) in a dose-dependent manner; also recorded: inhibited the production of CoA in a dose dependent manner”.

For `O=C(O)[C@H](O)[C@@H](O)[C@H](O)[C@H](O)COP(=O)(O)O` [Gluconate-6-P, gluconate-6-phosphate], the Ki [2, 5] is given as 480 ± 120 µM, the Ki [3, 5] is given as 140 ± 30 µM and the Ki ([4]; competitive inhibitor, read-out: Gluconate-6-P Ki) is given as 120 ± 30 µM. For the same compound, the “inhibition of CoA (GlcNAc-6-P) formation” value [1] was “inhibited the formation of CoA (GlcNAc-6-P) in a dose-dependent manner; also recorded: inhibited the production of CoA in a dose dependent manner”.

In the case of `O=C(CO)[C@@H](O)[C@H](O)[C@H](O)COP(=O)(O)O` [Fru-6-P, fructose-6-phosphate], the Km [2, 6] is given as 167 ± 48 µM, the Km [3, 6] is given as 122 ± 45 µM and the Km ([4]; read-out: Fru-6-P Km) is given as 119 ± 28 µM.

In the case of `O=C(NO)[C@@H](O)[C@H](O)[C@H](O)COP(=O)(O)O` [D-Arabinohydroxamic acid-5-phosphate], the Ki (Yeast PGI) is listed as 0.23 ± 0.02 µM, the Km/Ki (Yeast PGI) is listed as 300 and the Ki (T. brucei PGI; T. brucei PGI) is listed as 0.05 ± 0.009 µM. For the same compound, the Km/Ki (T. brucei PGI; T. brucei PGI) was 2060 and the “specificity for T. brucei phosphoglucose isomerase versus yeast isomerase” value (T. brucei PGI; T. brucei versus yeast) was 4.6 fold.

For polyoxins, the “inhibition constants (Ki)” value (Chitin synthase) is listed as “in the μM range”.
